# Data taken from patent US20250090482A1, “COMPOSITIONS AND METHODS FOR THE TREATMENT OF DEPRESSION” (Janssen Pharmaceuticals, Inc., priority 2022, published 2025).
# Several values for one entry are separate records, joined by “and”; a condition that tells them apart may be missing. Identical values can stand only once.
# Experiments:
# [1] = test system: MDD with suicidal ideation (SUI); test: 3MM biomarker signature analysis in esketamine trials with suicidal ideation (SUI); assay type: in vivo, human
# Method: (§1) Samples of venous blood were obtained from patients and healthy control subjects from subject described in Example 1 and from the other clinical trials referenced herein. Serum or plasma was prepared from the samples of venous blood. Measurements of human CRP and IL-6-R were performed in serum using an MSD Sector 6000 with the kits #K151STD and K151ALC (MesoScale Discovery, Rockville, MD). Human TNFα was quantified in serum using a Simoa HD-1 analyzer with kit #143 (Quanterix, Lexington, MA). All measures were performed according to kit manufacturer's recommendations.
# (§2) As used in the following biomarker assay analysis, treatment (TRT) refers to treatment with intranasal esketamine plus optionally an oral antidepressant and placebo (PBO) refers to treatment with a placebo plus optionally an oral antidepressant.
# (§3) The following biomarker signatures were employed: • 3MM: Inflammatory biomarker signature with positive status defined by CRP>3 mg/L and (TNFα>[…] or sIL6R>25 ng/mL). • 2MM: Inflammatory biomarker signature with positive status defined by CRP>3 mg/L and sIL6R>25 ng/mL. • CRP: Inflammatory biomarker signature with positive status defined by CRP>3 mg/L/
# (§4) The 3MM signature was tested in clinical trials for adjunctive MDD, including treatment-resistant MDD (TRD) and MDD with suicidal ideation (SUI). […] Significant was driven by Esketamine (ESK) TRD trials.
# [2] = test system: TRD patients, 3MM biomarker signature positive or negative; test: 3MM biomarker signature analysis of MADRS treatment effect across esketamine TRD trials; assay type: in vivo, human; details: for treatment effect, improvement over placebo: end of double blind treatment
# Method: as §1, §2, §3, §4
smiles,measurement,setting,value
"CN[C@]1(c2ccccc2Cl)CCCCC1=O [esketamine, (S)-2-(2-chlorophenyl)-2-(methylamino)cyclohexanone]",prediction of treatment effect by 3MM status at baseline,[1],did not predict treatment effect
same,"treatment effect, improvement over placebo",[2]; 3MM biomarker signature negative subjects,2 MADRS points and 2.0 MADRS points
same,"treatment effect, improvement over placebo",[2]; 3MM biomarker signature positive subjects,7.8 MADRS points
same,difference between subtypes (Signature advantage),[2]; 3MM positive minus negative,5.8 point
